Data published in US20090253712A1, “AQUEOUS SOLVENT SYSTEM FOR SOLUBILIZATION OF AZOLE COMPOUNDS” (SEMMELWEIS EGYETEM, priority 2008, published 2009).
Values after ≈ are worked out from the molar mass of the structure shown. Where two headings read alike, the source gives them in different places. Blank lines part the entries; values can stand above or below the molecule they belong to.

Tests used:
[1] = Solubility tests of active agent in solvent systems; assay type: physicochemical; conditions: for solubility: thermodynamic from solid; for Solubility in the compositions of Table 5 (in words): 3% surfactant, 25% co-solvent and pH adjuster (pH 3.1); for Solubilized miconazole / ketoconazole / itraconazole ± S.D.: Table 5: 1.5% sodium taurocholeate + 1.5% polysorbate 80 + 15% ethanol + 10% propylene glycol + ammonium acetate pH 3.1
Description: General example for the solubility tests
Each of the solutions applied in the solubilization tests were prepared as follows (the specific amount of the components comes from the Tables below):
1. 0.05M ammonium acetate (as pH-adjuster) solution was prepared in a volumetric flask and the pH of this solution was set to pH 3.1 with glacial acetic acid.
2. The specific amount of co-solvent was measured into a beaker and the specific amount of the previously prepared 0.05M ammonium acetate solution was added. The pH of this solution was measured and set to pH 3.1 with glacial acetic acid.
3. The specific amount of surfactant was added to the solution.
4. This solvent system was vigorously shaken until complete homogenization of the solution was achieved.
5. Aliquot amount of this solvent system was measured and the specific amount of the active agent was added to the solution.
The Tables below define the composition of each solution tested and the amount of the active agent which could be solubilized by the applied solvent system.
The amount of the co-solvent is given in % by volume and the amount of the surfactant is given in % by weight in each table.

[2] = data from U.S. Pat. No. 6,383,471, cited from earlier work
[3] = Stability on dilution with infusions; assay type: physicochemical; conditions: for Concentration of polysorbate 80 necessary to keep miconazole in solution on dilution: co-solvent 20% ethanol + ammonium acetate, pH 3.1, dilution to 200 ml with 5% dextrose or 0.9% sodium chloride infusions
Description: A composition called as “concentrate for infusion” should be diluted before administration to patients by a previously determined amount of usual infusion. The usual infusion is chosen preferably from the group of 5% dextrose infusion and 0.9% sodium chloride infusion. It is well known for a skilled person in the art that such a dilute should be stable for at least 48 hours. To reproduce the dilution scheme applied in the case of Monistat® (previously marketed as a concentrate for infusion containing miconazole), one of the compositions of the present invention was diluted with 5% dextrose infusion and 0.9% sodium chloride infusion. Based on the previous results a composition comprising of 0.1% polysorbate 80, 20% ethanol and ammonium acetate pH 3.1 was chosen for further investigation. […]

[4] = 3% polysorbate 80 + 25% ethanol + ammonium acetate pH 3.1, pH 3.1, aqueous with cosolvent or surfactant or cyclodextrin, Table 5: 3% polysorbate 80 + 25% ethanol + ammonium acetate pH 3.1, read-out: Solubilized miconazole / ketoconazole / itraconazole ± S.D.
[5] = aqueous with cosolvent or surfactant or cyclodextrin, Table 5: 1.5% sodium taurocholeate + 1.5% polysorbate 80 + 15% ethanol + 10% PEG 400 + ammonium acetate pH 3.1, read-out: Solubilized miconazole / ketoconazole / itraconazole ± S.D.
[6] = pH 3.1, aqueous with cosolvent or surfactant or cyclodextrin, Table 5: 1.5% sodium taurocholeate + 1.5% polysorbate 80 + 25% ethanol + ammonium acetate pH 3.1, read-out: Solubilized miconazole / ketoconazole / itraconazole ± S.D.
[7] = pH 3.1, aqueous with cosolvent or surfactant or cyclodextrin, Table 5: 3% polysorbate 80 + 15% ethanol + 10% PEG 400 + ammonium acetate pH 3.1, read-out: Solubilized miconazole / ketoconazole / itraconazole ± S.D.
[8] = pH 3.1, aqueous with cosolvent or surfactant or cyclodextrin, Table 5: 3% polysorbate 80 + 15% ethanol + 10% propylene glycol + ammonium acetate pH 3.1, read-out: Solubilized miconazole / ketoconazole / itraconazole ± S.D.

- solubility [1, 4]: 139 ± 4.05 mg/mL
- Solubility in the compositions of Table 5 (in words) [1]: best solubility
- Solubilized miconazole / ketoconazole / itraconazole ± S.D. [1]: 126.54 ± 1.04 mg/mL
- solubility [1, 5]: 142 ± 2.85 mg/mL
- solubility [1, 6]: 137 ± 8.15 mg/mL
- solubility [1, 7]: 140 ± 3.99 mg/mL
- solubility [1, 8]: 124.7 ± 1.16 mg/mL
SMILES: CC(=O)N1CCN(c2ccc(OCC3COC(Cn4ccnc4)(c4ccc(Cl)cc4Cl)O3)cc2)CC1 (centres unmarked) [ketoconazole]

- solubility [1, 4]: 0.057 ± 0.005 mg/mL
- Solubility in the compositions of Table 5 (in words) [1]: no substantial solubility
- Solubilized miconazole / ketoconazole / itraconazole ± S.D. [1]: 0.026 ± 0.001 mg/mL
- solubility [1, 5]: 0.04 ± 0.001 mg/mL
- solubility [1, 6]: 0.04 ± 0.008 mg/mL
- solubility [1, 7]: 0.054 ± 0.002 mg/mL
- solubility [1, 8]: 0.04 ± 0.001 mg/mL
SMILES: CCC(C)n1ncn(-c2ccc(N3CCN(c4ccc(OCC5COC(Cn6cncn6)(c6ccc(Cl)cc6Cl)O5)cc4)CC3)cc2)c1=O (centres unmarked) [itraconazole]
- Solubilized itraconazole ([2]; solvent system of Example 27): 85 mg/mL
- Solubilized itraconazole ([2]; solvent system of Example 28): 50 mg/mL
- Solubilized itraconazole ([2]; solvent system of Example 29): 50 mg/mL
- Solubilized itraconazole ([2]; solvent system of Example 30): 30 mg/mL
- Solubilized itraconazole ([2]; solvent system of Example 31): 30 mg/mL

- solubility ([1]; 0.05 M ammonium acetate in water, pH 3.1, aqueous buffer, 0.05 M ammonium acetate pH 3.1 in water, read-out: Solubilized miconazole ± S.D.): 2.24 ± 0.36 mg/mL (≈ 5380 µM)
- solubility ([1]; 0.05 M calcium gluconate in water, pH 3.1, aqueous buffer, 0.05 M calcium gluconate pH 3.1 in water, read-out: Solubilized miconazole ± S.D.): 0.65 ± 0.06 mg/mL (≈ 1560 µM)
- solubility ([1]; 0.05 M potassium dihydrogen phosphate in water, pH 3.1, aqueous buffer, 0.05 M potassium dihydrogen phosphate pH 3.1 in water, read-out: Solubilized miconazole ± S.D.): 0.77 ± 0.05 mg/mL (≈ 1850 µM)
- solubility ([1]; 0.10% polysorbate 80 + 5% ethanol + ammonium acetate pH 3.1, pH 3.1, aqueous with cosolvent or surfactant or cyclodextrin, Table 3: 0.10% polysorbate 80 + 5% ethanol + ammonium acetate pH 3.1, read-out: Solubilized miconazole ± S.D.): 2.39 ± 0.12 mg/mL
- solubility ([1]; 0.1% polysorbate 80 + 10% ethanol + ammonium acetate pH 3.1, pH 3.1, aqueous with cosolvent or surfactant or cyclodextrin, Table 3: 0.1% polysorbate 80 + 10% ethanol + ammonium acetate pH 3.1, read-out: Solubilized miconazole ± S.D.): 4.52 ± 0.03 mg/mL
- solubility ([1]; 0.1% polysorbate 80 + 15% ethanol + ammonium acetate pH 3.1, pH 3.1, aqueous with cosolvent or surfactant or cyclodextrin, Table 3: 0.1% polysorbate 80 + 15% ethanol + ammonium acetate pH 3.1, read-out: Solubilized miconazole ± S.D.): 10.8 ± 2.84 mg/mL
- solubility ([1]; 0.1% polysorbate 80 + 20% ethanol + ammonium acetate pH 3.1, pH 3.1, aqueous with cosolvent or surfactant or cyclodextrin, Table 3: 0.1% polysorbate 80 + 20% ethanol + ammonium acetate pH 3.1, read-out: Solubilized miconazole ± S.D.): 35.1 ± 5.76 mg/mL
- solubility ([1]; 0.10% polysorbate 80 + 25% ethanol + ammonium acetate pH 3.1, pH 3.1, aqueous with cosolvent or surfactant or cyclodextrin, Table 2: 0.10% polysorbate 80 + 25% ethanol + ammonium acetate pH 3.1, read-out: Solubilized miconazole ± S.D.): 36 ± 2.09 mg/mL
- solubility ([1]; 0.1% polysorbate 80 + 25% ethanol + ammonium acetate pH 3.1, pH 3.1, aqueous with cosolvent or surfactant or cyclodextrin, Table 3: 0.1% polysorbate 80 + 25% ethanol + ammonium acetate pH 3.1, read-out: Solubilized miconazole ± S.D.): 36 ± 1.49 mg/mL
- solubility ([1]; 0.25% polysorbate 80 + 25% ethanol + ammonium acetate pH 3.1, pH 3.1, aqueous with cosolvent or surfactant or cyclodextrin, Table 2: 0.25% polysorbate 80 + 25% ethanol + ammonium acetate pH 3.1, read-out: Solubilized miconazole ± S.D.): 34.4 ± 1.51 mg/mL
- solubility ([1]; 0.50% polysorbate 80 + 25% ethanol + ammonium acetate pH 3.1, pH 3.1, aqueous with cosolvent or surfactant or cyclodextrin, Table 2: 0.50% polysorbate 80 + 25% ethanol + ammonium acetate pH 3.1, read-out: Solubilized miconazole ± S.D.): 44.72 ± 0.14 mg/mL
- solubility ([1]; 1.0% polysorbate 80 + 25% ethanol + ammonium acetate pH 3.1, pH 3.1, aqueous with cosolvent or surfactant or cyclodextrin, Table 2: 1.0% polysorbate 80 + 25% ethanol + ammonium acetate pH 3.1, read-out: Solubilized miconazole ± S.D.): 42.6 ± 2.04 mg/mL
- solubility ([1]; 2.0% polysorbate 80 + 25% ethanol + ammonium acetate pH 3.1, pH 3.1, aqueous with cosolvent or surfactant or cyclodextrin, Table 2: 2.0% polysorbate 80 + 25% ethanol + ammonium acetate pH 3.1, read-out: Solubilized miconazole ± S.D.): 37.9 ± 1.86 mg/mL
- solubility ([1]; 3% polysorbate 20 in water, aqueous with cosolvent or surfactant or cyclodextrin, 3% polysorbate 20 in water, read-out: Solubilized miconazole ± S.D.): 0.81 ± 0.07 mg/mL (≈ 1950 µM)
- solubility ([1]; 3% polysorbate 60 in water, aqueous with cosolvent or surfactant or cyclodextrin, 3% polysorbate 60 in water, read-out: Solubilized miconazole ± S.D.): 1.42 ± 0.1 mg/mL (≈ 3410 µM)
- solubility ([1]; 3.0% polysorbate 80 + 25% ethanol + ammonium acetate pH 3.1, pH 3.1, aqueous with cosolvent or surfactant or cyclodextrin, Table 2: 3.0% polysorbate 80 + 25% ethanol + ammonium acetate pH 3.1, read-out: Solubilized miconazole ± S.D.): 38.9 ± 0.61 mg/mL
- solubility [1, 4]: 34.1 ± 2.95 mg/mL
- solubility ([1]; 3% polysorbate 80 in water, aqueous with cosolvent or surfactant or cyclodextrin, 3% polysorbate 80 in water, read-out: Solubilized miconazole ± S.D.): 1.52 ± 0.09 mg/mL (≈ 3650 µM)
- Solubility in the compositions of Table 5 (in words) [1]: remarkable solubility
- solubility ([1]; 4.0% polysorbate 80 + 25% ethanol + ammonium acetate pH 3.1, pH 3.1, aqueous with cosolvent or surfactant or cyclodextrin, Table 2: 4.0% polysorbate 80 + 25% ethanol + ammonium acetate pH 3.1, read-out: Solubilized miconazole ± S.D.): 43.3 ± 2.61 mg/mL
- solubility ([1]; 5.0% polysorbate 80 + 25% ethanol + ammonium acetate pH 3.1, pH 3.1, aqueous with cosolvent or surfactant or cyclodextrin, Table 2: 5.0% polysorbate 80 + 25% ethanol + ammonium acetate pH 3.1, read-out: Solubilized miconazole ± S.D.): 42.7 ± 0.81 mg/mL
- solubility ([1]; 25% ethanol in water, aqueous with cosolvent or surfactant or cyclodextrin, 25% ethanol in water, read-out: Solubilized miconazole ± S.D.): 0.021 ± 0.01 mg/mL (≈ 50.5 µM)
- solubility ([1]; 30% glycerol in water, aqueous with cosolvent or surfactant or cyclodextrin, 30% glycerol in water, read-out: Solubilized miconazole ± S.D.): 0.024 ± 0.006 mg/mL (≈ 57.7 µM)
- solubility ([1]; 30% macrogol 400 in water, aqueous with cosolvent or surfactant or cyclodextrin, 30% macrogol 400 in water, read-out: Solubilized miconazole ± S.D.): 0.022 ± 0.008 mg/mL (≈ 52.9 µM)
- solubility ([1]; 60% propylene glycol in water, aqueous with cosolvent or surfactant or cyclodextrin, 60% propylene glycol in water, read-out: Solubilized miconazole ± S.D.): 0.36 ± 0.12 mg/mL (≈ 865 µM)
- Solubilized miconazole / ketoconazole / itraconazole ± S.D. [1]: 38.38 ± 1.53 mg/mL
- solubility [1, 5]: 34.8 ± 2.36 mg/mL
- solubility [1, 6]: 32.1 ± 2.86 mg/mL
- solubility [1, 7]: 22 ± 1.62 mg/mL
- solubility [1, 8]: 10.7 ± 0.69 mg/mL
- Concentration of polysorbate 80 necessary to keep miconazole in solution on dilution ([3]; 10 mg/ml miconazole in composition): 0.1%^
- Concentration of polysorbate 80 necessary to keep miconazole in solution on dilution ([3]; 20 mg/ml miconazole in composition): 3%
- Concentration of polysorbate 80 necessary to keep miconazole in solution on dilution ([3]; 30 mg/ml miconazole in composition): 3%
- Stability of diluted composition ([3]; 10 ml of 0.1% polysorbate 80, 20% ethanol, ammonium acetate pH 3.1 containing 20 mg/ml miconazole, diluted to 200 ml with 5% dextrose or 0.9% sodium chloride infusion): not stable for 48 hours
SMILES: Clc1ccc(COC(Cn2ccnc2)c2ccc(Cl)cc2Cl)c(Cl)c1 (centres unmarked) [miconazole]
